We go through 1 compound from ChEMBL document CHEMBL4765275, “Discovery of novel tertiary amide derivatives as NEDDylation pathway activators to inhibit the tumor progression in vitro and in vivo” (Eur J Med Chem, 2020).

The structures appear in SMILES notation. Calls of active or inactive are those of the source. The rule behind the calls is not given here.

For data set [1], the system named is MGC-803. Nature of the data set: Cell cycle arrest in human MGC-803 cells assessed as accumulation at G1 phase at 150 nmol/L measured after 48 hrs by propidium iodide staining based flow cytometry (reference value: 40.61%). Format: functional. A general note: Flow cytometry measures light scatter and fluorescence of single cells or particles in a stream.
Data set [2] relates to MGC-803. Put plainly: Induction of apoptosis in human MGC-803 cells assessed as viable cells at 50 nmol/L measured after 48 hrs by Annexin V-FITC/propidium iodide staining based flow cytometry (reference value: 91.7%). The format is functional. The conditions noted are these: read-out: Activity.
Data set [3] concerns MGC-803. Put plainly: Induction of apoptosis in human MGC-803 cells assessed as necrotic cells at 75 nmol/L measured after 48 hrs by Annexin V-FITC/propidium iodide staining based flow cytometry (reference value: 0.5%). The format is functional.
The subject of data set [4] is MGC-803. Nature of the data set: Induction of apoptosis in human MGC-803 cells assessed as down regulation of Bcl-xL expression at 50 to 150 nmol/L measured after 48 hrs by Western blot analysis. The conditions noted are these: dose 50-150 nmol/L. The format is functional, cell-based. On the technique in general: In western blotting, separated proteins are transferred to a membrane and probed.

Data set [5] relates to MGC-803. Put plainly: Induction of apoptosis in human MGC-803 cells assessed as increase in cleaved PARP expression at 150 nmol/L measured after 24 hrs in presence of NEDDylation inhibitor MLN4924 by Western blot analysis. The format is functional, cell-based.
The test system of data set [6] is MGC-803. Put plainly: Toxicity in human MGC-803 cells xenografted mouse assessed as change in body weight at 50 to 150 mg/kg, sc measured after 28 days. The format is organism-based. The conditions noted are these: in vivo, 672 h, dose 50-150 mg/kg, time 28 day.

As to `COc1ccc(CN(C(=O)Cc2cccs2)c2cc(OC)c(OC)c(OC)c2)cc1`, the figures for the Activity in data set [1], in data set [3] and in data set [6] were 13.31%, 2% and “Non-Toxic”, respectively. In data set [2], the viability at 0.05 µM was found to be 87.7%. Further, the result in data set [4] was Active. Also, the result in data set [5] was inactive.
